Measurements as given in US12104201B2, “Engineered gyri-like mutein aptamers, and related methods” (CROSSLIFE TECHNOLOGIES INC., priority 2019, dated 2024).
“Also recorded” adds a separate entry of the source. Where two headings read alike, the source gives them in different places.

Experiments:
[1] = molecular target: T1, LIN2189 WT (L. innocua Gyrl-like protein, wild type, SEQ ID NO:6) (Listeria innocua, UniProt Q929T5); experiment: Fluorescence binding assay (enhancement/quenching of dye fluorescence)
T1 construct: recombinant, purified
T1 sequence (Q929T5 with tags, fused parts or gaps): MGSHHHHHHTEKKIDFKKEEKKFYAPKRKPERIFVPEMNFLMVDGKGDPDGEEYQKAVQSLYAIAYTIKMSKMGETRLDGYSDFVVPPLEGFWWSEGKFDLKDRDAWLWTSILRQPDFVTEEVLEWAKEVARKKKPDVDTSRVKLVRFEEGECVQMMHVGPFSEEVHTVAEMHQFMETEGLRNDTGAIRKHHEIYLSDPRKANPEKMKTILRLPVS
Description: Fluorescence Binding Assay
CTR107 when added at 10 μM induced a 10-fold increase in DFHBI fluorescence (FIG. 6A).
Malachite Green fluoresces in the far-red regions when stimulated by binding aptamers, therefore we monitored its fluorescence emission at 665-720 nm after exciting at 635 nm.
Thioflavin T is a benzothiazole dye that has also been used in many fluorescence applications. […] The Corn aptamer is able to bind to two Thioflavin T molecules at a homodimer interface formed by G-quadruplexes. We tested whether Gyrl-like proteins could function as fluorescence enhancement aptamers of Thioflavin T. Thioflavin T has excitation and emission maxima of […], respectively. We probed the fluorescence enhancing properties of SAV2435, CTR107 and LIN2189 variants on Thioflavin T (FIG. 8). […] All other variants display either a small 4-6 fold increase or no increase in Thioflavin T fluorescence.

[2] = molecular target: T2, CTR107 WT (C. tepidium Gyrl-like protein, wild type, SEQ ID NO:4) (Chlorobaculum tepidum, UniProt Q8KFZ1); experiment: biochemical; assay type: binding; conditions: for Kd: read-out: dissociation constant
T2 construct: begins […]

[3] = molecular target: T3, SAV2435 WT (S. aureus Gyrl-like protein, wild type, SEQ ID NO:2) (Staphylococcus aureus, UniProt A0A0H3K0Y5); assay type: binding
T3 construct: listing organism Escherichia coli is only the host

[4] = molecular target: T4, C. tepidium CTR107 variant Y106W (SEQ ID NO:20) (Chlorobaculum tepidum, UniProt Q8KFZ1, Y106W); experiment: biochemical; assay type: binding
T4 sequence (Q8KFZ1 with tags, fused parts or gaps Y106W): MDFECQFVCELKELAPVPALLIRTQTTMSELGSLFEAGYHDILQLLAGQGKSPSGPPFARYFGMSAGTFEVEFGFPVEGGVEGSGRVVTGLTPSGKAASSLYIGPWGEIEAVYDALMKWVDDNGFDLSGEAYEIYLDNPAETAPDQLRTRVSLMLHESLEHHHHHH

[5] = tested on: C. tepidium CTR107 variant Y106W (SEQ ID NO:20); experiment: biochemical; assay type: binding
[6] = molecular target: S. aureus SAV2435 variant V105W (SEQ ID NO:10) (Staphylococcus aureus, UniProt A0A0H3K0Y5, V105W); assay type: binding
[7] = molecular target: S. aureus SAV2435 variant P106W (SEQ ID NO:12) (Staphylococcus aureus, UniProt A0A0H3K0Y5, P106W); assay type: binding
[8] = molecular target: S. aureus SAV2435 variant Y137W (SEQ ID NO:16) (Staphylococcus aureus, UniProt A0A0H3K0Y5, V105W/Y137W); assay type: binding; conditions: Oxazine 170
[9] = molecular target: S. aureus SAV2435 variant N27W (SEQ ID NO:8) (Staphylococcus aureus, UniProt A0A0H3K0Y5, Q27W); assay type: binding; conditions: Oxazine 170
[10] = molecular target: S. aureus SAV2435 variant E135Q (SEQ ID NO:14) (Staphylococcus aureus, UniProt A0A0H3K0Y5, E135Q/V105W); assay type: binding; conditions: Oxazine 170
[11] = molecular target: C. tepidium CTR107 variant E36R (SEQ ID NO:18) (Chlorobaculum tepidum, UniProt Q8KFZ1, E36R); assay type: binding; conditions: 500 nM SYTO9
[12] = molecular target: T5, C. tepidium CTR107 variant E133Q (SEQ ID NO:22) (Chlorobaculum tepidum, UniProt Q8KFZ1, E133Q); assay type: binding; conditions: 500 nM SYTO9
T5 sequence (Q8KFZ1 with tags, fused parts or gaps E133Q): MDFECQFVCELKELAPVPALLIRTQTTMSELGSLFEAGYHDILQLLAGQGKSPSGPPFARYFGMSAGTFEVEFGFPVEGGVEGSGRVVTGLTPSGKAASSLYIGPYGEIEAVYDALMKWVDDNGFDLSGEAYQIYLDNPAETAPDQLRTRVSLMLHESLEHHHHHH

TAMRA-DNA = experiment: TAMRA-labeled DNA fluorescence quenching assay; conditions: 5 nM protein
[13] = FAM fluorescence quenching assay; assay type: biochemical; conditions: 1 μM FAM, saturating protein
Excerpt: The fluorescence enhancing or quenching properties of Gyrl-like proteins can be used as a tool for identifying aptamers for target organic compounds. Building on Examples 1-8 we designed a protocol for identifying aptamers that bind to fluorescent dyes 5(6)-Carboxyfluorescein (FAM) and 5-Carboxytetramethylrhodamine (TAMRA) (FIG. 4). Both dyes are similar in structure and fluorescence in the green and red regions, respectively. The binding of FAM and TAMRA by Gyrl-like variant aptamers will result in enhancement or quenching of fluorescence. The invention method starts with screening our 3-selected wildtype Gyrl-like proteins to determine which can alter the fluorescence of FAM in solution (FIG. 11A).

[14] = Colorimetric conversion of Iodonitrotetrazolium to Formazan; conditions: 100 μM NADH; 500 μM Iodonitrotetrazolium; 5 minutes
[15] = Acridine Orange fluorescence assay; conditions: 500 nM Acridine Orange
[16] = pH stability of Thiazole Orange fluorescence module
[17] = UV fluorescence quenching of Oxazine 170 and reversibility; conditions: UV light
[18] = 500 nM Malachite Green, 10 μM protein, ex 635 nm, em 665-720 nm
[19] = 500 nM Oxazine 170, saturating protein
[20] = 100 nM Oxazine 170, 100 nM protein
[21] = 1 μM Thiazole Orange, saturating protein
[22] = 1 μM SYTO9, 10 μM protein, em 665-720 nm
[23] = 1 μM SYTO9, 10 μM protein, ex 470 nm, em 510-580 nm

T2 sequence (Q8KFZ1 entry or part of it): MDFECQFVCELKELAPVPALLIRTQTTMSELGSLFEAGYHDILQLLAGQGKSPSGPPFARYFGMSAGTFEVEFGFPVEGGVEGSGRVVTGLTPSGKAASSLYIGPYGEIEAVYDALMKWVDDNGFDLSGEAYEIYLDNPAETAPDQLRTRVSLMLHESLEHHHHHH
C. tepidium CTR107 variant E36R (SEQ ID NO:18), sequence (Q8KFZ1 entry or part of it E36R): as the sequence (Q8KFZ1 entry or part of it) above, with E36R counted along it

CC1=N/C(=C\c2cc(F)c(O)c(F)c2)C(=O)N1C [DFHBI]
effect on fluorescence ([1]; 500 nM DFHBI): no effect on fluorescence | increase in fluorescence ([2]; DFHBI, 10 μM protein): 10 fold | increase in fluorescence (green channel) ([3]; 500 nM DFHBI, 10 μM protein): 20 fold

COc1cccc2c1C(=O)c1c(O)c3c(c(O)c1C2=O)C[C@@](O)(C(C)=O)C[C@@H]3O[C@H]1C[C@H](N)[C@H](O)[C@H](C)O1 [Daunorubicin]
fluorescence decrease (green channel) ([2]; 50 μM daunorubicin): greater than 2 fold | Kd ([2]; Daunorubicin, nonlinear regression, Hill equation): 4000 nM | Kd [4]: 42 nM | fluorescence decrease (green channel) ([4]; 50 μM daunorubicin): 3 fold | increase in binding affinity compared to wildtype CTR107 ([5]; Daunorubicin): approximately 100 fold

CN(C)c1ccc(C(=C2C=CC(=[N+](C)C)C=C2)c2ccccc2)cc1 [Malachite Green]
effect on fluorescence enhancement ([1]; 500 nM Malachite Green): no effect on fluorescence enhancement | increase in fluorescence (red channel) [2, 18]: 18 fold | increase in fluorescence (red channel) [3, 18]: 10 fold

CCN=c1cc2oc3cc(NCC)c(C)cc3nc-2c2ccccc12 [Oxazine 170]
reduction in fluorescence (red channel) [2, 19]: 6 fold | fluorescence decrease at 100 nM protein [6, 20]: 60% | decrease in fluorescence ([4]; Oxazine 170): 47 fold | quenching potency relative to CTR107 WT ([5]; Oxazine 170): 5 fold | protein concentration for 50% quenching ([3]; 100 nM Oxazine 170): 10 to 50 nM | fluorescence shut-off at 100 nM protein [3, 20]: ~100% | decrease in fluorescence (red channel) [3, 19]: 303 fold | shut-off of fluorescence [3, 19]: ~100% | fluorescence decrease at 100 nM protein [7, 20]: 60% | quenching effect [8]: small decrease | reduction in fluorescence [9]: 529 fold | shut-off of fluorescence [9]: ~100% | reduction in fluorescence [10]: 303 fold | shut-off of fluorescence [10]: ~100%

CN1C(=Cc2cc[n+](C)c3ccccc23)Sc2ccccc21 [Thiazole Orange]
effect on fluorescence [1, 21]: no effects | effect on fluorescence [2, 21]: no effects; also recorded: no enhancement | fluorescence enhancement vs. dye alone (red channel) ([6]; Thiazole Orange): 50 fold | enhancement relative to wildtype ([6]; Thiazole Orange, vs SAV2435 WT): 3 fold | fluorescence enhancement (green channel) ([4]; Thiazole Orange): 13 fold | fluorescence enhancement (red channel) ([4]; Thiazole Orange): 20 fold | increase in fluorescence (green channel) [3, 21]: 50 fold | increase in fluorescence (red channel) [3, 21]: 5 fold | fluorescence increase (channel not stated) ([3]; Thiazole Orange): 20 fold | fluorescence enhancement vs. dye alone (red channel) ([7]; Thiazole Orange): 50 fold | enhancement relative to wildtype ([7]; Thiazole Orange, vs SAV2435 WT): 3 fold

Cc1ccc2c(c1)sc(-c1ccc(N(C)C)cc1)[n+]2C [Thioflavin T]
fluorescence enhancement (green channel) ([1]; Thioflavin T): 13 fold | fluorescence enhancement (red channel) ([1]; Thioflavin T): 50 fold | fluorescence enhancement (green and red channel) ([2]; Thioflavin T): 50 fold

SYTO9
fluorescence enhancement (red and green channel) ([1]; SYTO9): small enhancement | fluorescence enhancement (red channel) [2, 22]: 33 fold | fluorescence enhancement (green channel) [2, 23]: 84 fold | Kd ([2]; SYTO9, estimated, fluorescence enhancement vs. protein concentration, Hill fit): 302 nM | fluorescence enhancement (green channel) ([4]; 500 nM SYTO9): 115 fold | fluorescence enhancement (red channel) ([4]; 500 nM SYTO9): 19 fold | fluorescence enhancement (red channel) [3, 22]: 11 fold | fluorescence enhancement (green channel) [3, 23]: 21 fold | fluorescence enhancement compared to wildtype CTR107 [11]: weaker enhancement than wildtype | fluorescence enhancement (green channel) [12]: 157 fold | fluorescence enhancement (red channel) [12]: 55 fold

B1: LIN2189 E157A: LIN2189 variant aptamer, SEQ ID NO:28 (protein, listed as Escherichia coli)
chain: MGSHHHHHHTEKKIDFKKEEKKFYAPKRKPERIFVPEMNFLMVDGKGDPDGEEYQKAVQSLYAIAYTIKMSKMGETRLDGYSDFVVPPLEGFWWSEGKFDLKDRDAWLWTSILRQPDFVTEEVLEWAKEVARKKKPDVDTSRVKLVRFEEGECVQMMHVGPFSEAVHTVAEMHQFMETEGLRNDTGAIRKHHEIYLSDPRKANPEKMKTILRLPVS
effect on 100 nM TAMRA-DNA fluorescence (TAMRA-DNA): no effects on TAMRA fluorescence | decrease in FAM fluorescence [13]: no changes in fluorescence quenching compared to LIN2189 WT

B2: CTR107 E133Q: CTR107 variant aptamer, SEQ ID NO:22 (protein, listed as Escherichia coli)
chain: MDFECQFVCELKELAPVPALLIRTQTTMSELGSLFEAGYHDILQLLAGQGKSPSGPPFARYFGMSAGTFEVEFGFPVEGGVEGSGRVVTGLTPSGKAASSLYIGPYGEIEAVYDALMKWVDDNGFDLSGEAYQIYLDNPAETAPDQLRTRVSLMLHESLEHHHHHH
color change of Iodonitrotetrazolium with NADH [14]: faint red signal | Acridine Orange fluorescence increase [15]: doubled the fluorescence intensity

B3: SAV2435 P106W: SAV2435 variant aptamer, SEQ ID NO:12 (protein, listed as Escherichia coli)
chain: MEYQLQQLASLTLVGIKETYENGRQAQQHIAGFWQRCYQEGVIADLQLKNNGDLAGILGLCIPELDGKMSYMIAVTGDNSADIAKYDVITLASSKYMVFEAQGAVWKAVQQKMEEVHHYIHQYQANTVKSAPFFELYQDGDTTSEKYITEIWMPVKGLEHHHHHH
Acridine Orange fluorescence increase [15]: doubled the fluorescence intensity | decrease in Thiazole Orange fluorescence under acidic conditions ([16]; pH 3): 2 fold | stability of Thiazole Orange fluorescence under basic conditions ([16]; pH 11): slightly more stable than acidic

B4: SAV2435 E135Q: SAV2435 variant aptamer, SEQ ID NO:14 (protein, listed as Escherichia coli)
chain: MEYQLQQLASLTLVGIKETYENGRQAQQHIAGFWQRCYQEGVIADLQLKNNGDLAGILGLCIPELDGKMSYMIAVTGDNSADIAKYDVITLASSKYMVFEAQGAWPKAVQQKMEEVHHYIHQYQANTVKSAPFFQLYQDGDTTSEKYITEIWMPVKGLEHHHHHH
Acridine Orange fluorescence increase [15]: doubled the fluorescence intensity

B5: SAV2435 Y137W: SAV2435 variant aptamer, SEQ ID NO:16 (protein, listed as Escherichia coli)
chain: MEYQLQQLASLTLVGIKETYENGRQAQQHIAGFWQRCYQEGVIADLQLKNNGDLAGILGLCIPELDGKMSYMIAVTGDNSADIAKYDVITLASSKYMVFEAQGAWPKAVQQKMEEVHHYIHQYQANTVKSAPFFELWQDGDTTSEKYITEIWMPVKGLEHHHHHH
shut-off of Oxazine 170 red UV fluorescence [17]: non-quencher
